{"source": "paper PMC10610038", "about": "“New Insights into the Enhancement of Adventitious Root Formation Using N,N′-Bis(2,3-methylenedioxyphenyl)urea” (Plants, 2023)", "key": {"[1]": {"target": "T1, ZmCKX1 (cytokinin oxidase/dehydrogenase) (Zea mays, UniProt Q9T0N8)", "T1 construct": "gene CKX1", "T1 sequence (Q9T0N8 19-534)": "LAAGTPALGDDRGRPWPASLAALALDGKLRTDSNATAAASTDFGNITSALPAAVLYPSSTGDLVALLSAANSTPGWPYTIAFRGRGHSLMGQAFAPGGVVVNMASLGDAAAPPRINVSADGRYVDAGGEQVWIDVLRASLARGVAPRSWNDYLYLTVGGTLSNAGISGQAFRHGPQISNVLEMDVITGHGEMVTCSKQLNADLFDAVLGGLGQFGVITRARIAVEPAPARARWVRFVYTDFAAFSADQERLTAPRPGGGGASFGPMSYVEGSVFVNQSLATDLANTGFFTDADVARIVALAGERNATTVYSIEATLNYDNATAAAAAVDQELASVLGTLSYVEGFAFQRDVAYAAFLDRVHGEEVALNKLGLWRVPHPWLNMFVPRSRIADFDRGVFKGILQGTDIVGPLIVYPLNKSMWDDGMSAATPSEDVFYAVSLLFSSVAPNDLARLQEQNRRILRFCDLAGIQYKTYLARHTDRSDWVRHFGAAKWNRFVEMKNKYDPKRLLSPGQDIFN", "experiment": "DCPIP reduction assay with purified ZmCKX1, trans-zeatin substrate; Lineweaver-Burk; Ki from IC50 ([…]) by Cheng-Prusoff", "assay_type": "biochemical"}, "[2]": {"target": "T1, ZmCKX1 (cytokinin oxidase/dehydrogenase)", "experiment": "DCPIP reduction assay with purified ZmCKX1, trans-zeatin substrate; Ki from IC50 ([…]) by Cheng-Prusoff", "assay_type": "biochemical"}}}
{"smiles": "O=C(Nc1cccc2c1OCO2)Nc1cccc2c1OCO2", "note": "[2,3-MDPU, N,N′-bis-(2,3-methylenedioxyphenyl)urea]", "values": [{"measurement": "Ki", "setting": "[1]", "value": 1600, "unit": "nM"}]}
{"smiles": "O=C(Nc1ccccc1)Nc1cnns1", "note": "[TDZ, N-phenyl-N′-(1,2,3-thiadiazol-5-yl)urea]", "values": [{"measurement": "Ki", "setting": "[2]", "value": 1400, "unit": "nM"}]}
